Experimental data reported in patent US10143648B2, “Peptide and oside extract of schisandra fruit and improvement in the response of the cutaneous neurosensory system” (LABORATOIRES EXPANSCIENCE, priority 2014, dated 2018).

What was measured:
CGRP = CGRP release by sensory neurons stimulated by capsaicin in co-culture with keratinocytes; format: cell-based; details: 60 min pre-incubation, extract 0.005%-0.1% (DM) or capsazepine 10^-5 M, capsaicin 10^-7 M, 15 min
Description: Sensory neurons were cultured in the presence of normal human epidermal keratinocytes. After 3 days of co-culture, the neurons project extensions in the form of free endings in contact with the keratinocytes. The cells were then incubated in the presence of the peptide and oside extract of Schisandra Sphenanthera at concentrations of 0.005%, 0.01%, 0.05% and 0.1% (DM) or the reference molecule, capsazepine, at a concentration of 10^−5 M (Sigma). After 60 minutes of pre-incubation, the neurons (in co-culture) were stimulated by capsaicin at a concentration of 10^−7 M (Sigma). After 15 minutes of stimulation, the culture supernatants were collected in order to assay the released CGRP. The CGRP assay was carried out using the CGRP assay kit (SpiBio). The significance of the results was confirmed by one-way analysis of variance followed by Dunnett's test.

TRPV1 receptor = target: T1, TRPV1 receptor (Homo sapiens, UniProt Q8NER1); assay: Intracytoplasmic calcium mobilization (Fluo-4) in sensory neurons stimulated by capsaicin in co-culture with keratinocytes; format: cell-based; details: capsaicin 10^-6 M, vs. control
T1 construct: Sensory neurons cultured in the presence of normal human epidermal keratinocytes; endogenous in cells; host or cells: sensory neurons in co-culture with normal human epidermal keratinocytes
Description: Activation of the TRPV1 receptor on sensory neurons can be evaluated by analyzing the electrical activity of sensory neurons by monitoring variations of the cytoplasmic calcium concentration. Indeed, when cells are stimulated by capsaicin, a massive amount of extracellular calcium enters the neuronal cytoplasm in order to trigger electrical activity and to cause a massive release of neuropeptides in the extracellular space. The variation of the level of fluorescence is analyzed by the incorporation of a calcium-dependent fluorescent probe (Fluo-4) in the cells. Thus, during the increase in calcium in the cells, the level of fluorescence increases in the cell body of the neurons. The higher this level, the higher the stimulation of the neurons. Sensory neurons cultured in the presence of normal human epidermal keratinocytes were incubated in the presence of the peptide and oside extract of Schisandra sphenanthera at concentrations of 0.005%, 0.01%, 0.05% and 0.1% (DM) or the reference molecule, capsazepine, at a concentration of 10^−5 M (Sigma). After 60 minutes of pre-incubation, the fluorescent probe, Fluo-4 (Molecular probe), was added to the culture medium and the cells were incubated 30 minutes. […] The significance of the results was confirmed by Bartlett's test.

T1 sequence (Q8NER1 whole entry): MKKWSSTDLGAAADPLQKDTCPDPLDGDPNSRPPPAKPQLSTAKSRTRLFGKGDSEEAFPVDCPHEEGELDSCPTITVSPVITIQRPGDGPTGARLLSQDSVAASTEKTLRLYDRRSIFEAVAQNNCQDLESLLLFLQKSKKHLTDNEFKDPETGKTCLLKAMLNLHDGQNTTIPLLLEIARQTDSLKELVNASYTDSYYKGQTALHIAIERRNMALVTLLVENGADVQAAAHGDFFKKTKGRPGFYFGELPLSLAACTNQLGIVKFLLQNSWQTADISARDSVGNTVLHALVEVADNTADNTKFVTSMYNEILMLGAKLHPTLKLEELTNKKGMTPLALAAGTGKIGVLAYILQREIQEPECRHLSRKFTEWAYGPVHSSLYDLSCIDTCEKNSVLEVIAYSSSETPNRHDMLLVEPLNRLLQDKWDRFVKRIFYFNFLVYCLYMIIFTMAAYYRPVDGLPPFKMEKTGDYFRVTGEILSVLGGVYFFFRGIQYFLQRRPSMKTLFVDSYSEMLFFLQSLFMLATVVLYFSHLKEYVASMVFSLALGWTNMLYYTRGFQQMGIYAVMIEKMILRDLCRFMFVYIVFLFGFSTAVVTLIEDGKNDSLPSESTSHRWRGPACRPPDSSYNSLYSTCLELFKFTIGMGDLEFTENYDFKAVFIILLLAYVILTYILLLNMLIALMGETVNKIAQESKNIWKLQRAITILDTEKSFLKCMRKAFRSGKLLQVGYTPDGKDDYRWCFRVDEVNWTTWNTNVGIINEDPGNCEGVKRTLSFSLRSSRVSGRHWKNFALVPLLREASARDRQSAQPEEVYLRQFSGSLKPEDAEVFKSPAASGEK

Structure (SMILES)	release of CGRP induced by capsaicin (CGRP)	level of fluorescence (quantity of intracytoplasmic calcium) after addition of the stimulus (TRPV1 receptor)
Oc1cc2c(cc1O)CN(C(=S)NCCc1ccc(Cl)cc1)CCC2 [capsazepine]	inhibitory effect	–
COc1cc(CNC(=O)CCCC/C=C/C(C)C)ccc1O [capsaicin]	–	significant increase in the level of fluorescence
